In ChEMBL document CHEMBL5506048, “Modular Biomimetic Strategy Enables Discovery and SAR Exploration of Oxime Macrocycles as Influenza A Virus (H1N1) Inhibitors” (J Med Chem, 2024):
Calls of active or inactive are those of the source. The calls are words filed in the database; no cut-off is given here.

Tests used:
Calu-3 = assay: Cytotoxicity against human Calu-3 cells assessed as cell viability measured after 3 days by CellTiter-Lumi Steady Plus Luminescent Cell Viability Assay Kit; type: functional; conditions: Calu-3, 72 h, time 3 day
Influenza A virus [1] = assay: Antiviral activity against Influenza virus H1N1 A/Puerto Rico/8/34 (A/PR/8/34) infected in human Calu-3 cells assessed as viral RNA at CC50 concentration for human Calu-3 cells measured after 3 days by one-time real time PCR assay; type: functional, organism-based; conditions: time 3.0 day
[2] = Selectivity index, ratio of CC50 for human Calu-3 cells to EC50 for antiviral activity against Influenza virus HINI A/Puerto Rico/8/34 (A/PR/8/34); type: toxicity; conditions: read-out: Selectivity Index
Influenza A virus [3] = assay: Antiviral activity against Influenza virus H1N1 A/Puerto Rico/8/34 (A/PR/8/34) infected in human Calu-3 cells assessed as viral RNA measured after 3 days by one-time real time PCR assay; type: functional, organism-based; conditions: Calu-3, 72 h; for EC90: time 3 day

Row | SMILES | CC50 (Calu-3) [µM] | Activity (Influenza A virus [1]) | selectivity ratio [2] | EC50 (Influenza A virus [3]) [µM] | EC90 (Influenza A virus [3]) [µM]
1 | CO/N=C1\CCCCOC(=O)/C(=C/c2ccc(F)cc2)Cc2cc(C(F)(F)F)ccc2C(=O)NCC1(C)C | > 100 | inactive | – | – | –
2 | C=C1Cc2cc(C(F)(F)F)ccc2C(=O)NCC(C)/C(=N/OC)CCCOC1=O (configuration not stated) | > 100 | inactive | – | – | –
3 | C=C1Cc2cc(C(F)(F)F)ccc2C(=O)NCC(C)(C)/C(=N/OC)CCOC1=O | > 100 | inactive | – | – | –
4 | C=C1Cc2cc(C(F)(F)F)ccc2C(=O)NCC(C)(C)/C(=N/OC)CCCCOC1=O | > 100 | – | > 43 | 2.3 | 46.5
5 | C=C1Cc2cc(C(F)(F)F)ccc2C(=O)NCC(C)(C)/C(=N/OC)CCC(C2CC2)OC1=O (configuration not stated) | 42.9 | inactive | – | – | –
6 | C=C1Cc2cc(C(F)(F)F)ccc2C(=O)NCC(C)(C)/C(=N/OC)CCCOC1=O | > 100 | – | > 226 | 0.441 | 0.56
7 | CO/N=C1\CCCCOC(=O)C(CSCCC(=O)O)Cc2cc(C(F)(F)F)ccc2C(=O)NCC1(C)C (configuration not stated) | > 100 | inactive | – | – | –
8 | C=C1Cc2cc(C(F)(F)F)ccc2C(=O)NCC(C)(C)/C(=N/OC)CCCCCCOC1=O | 15.6 | inactive | – | – | –
9 | C=C1Cc2cc(C(F)(F)F)ccc2C(=O)NCC(C)(C)/C(=N/OC(CC)CC)CCC(C)OC1=O (configuration not stated) | 31.9 | inactive | – | – | –
10 | C=C1Cc2cc(C(F)(F)F)ccc2C(=O)NCC(C)(C)/C(=N/OC)CCC(CC)OC1=O (configuration not stated) | 42.4 | inactive | – | – | –
11 | C=C1Cc2cc(C(F)(F)F)ccc2C(=O)NCC(C)(C)/C(=N/OC)CCC(CNCCO)OC1=O (configuration not stated) | > 100 | inactive | – | – | –
12 | C=C1Cc2cc(C(F)(F)F)ccc2C(=O)NCC(C)(C)/C(=N/OC(C)C)CCC(C)OC1=O (configuration not stated) | 36.6 | inactive | – | – | –
13 | C=C1Cc2cc(C(F)(F)F)ccc2C(=O)NCC(C)(C)/C(=N/OCC(F)(F)F)CCCOC1=O | > 100 | – | > 233 | 0.428 | 1.87
14 | C=C1Cc2cc(C(F)(F)F)ccc2C(=O)NCC(C)(C)/C(=N/OC)CCC(CN2CCOCC2)OC1=O (configuration not stated) | > 100 | inactive | – | – | –
15 | C=C1Cc2cc(C(F)(F)F)ccc2C(=O)NCC(C)(C)/C(=N/OC)CCCNC1=O | > 100 | – | > 152 | 0.657 | 1.39
16 | C=C1Cc2cc(OC)ccc2C(=O)NCC(C)(C)/C(=N/OC)CCCOC1=O | > 100 | – | > 95 | 1.05 | 3.55
17 | C=C1Cc2cc(C(F)(F)F)ccc2C(=O)NCC2(CCC2)/C(=N/OC)CC[C@H](C)OC1=O | 67.3 | – | 305 | 0.22 | 0.68
18 | C=C1Cc2cc(C(F)(F)F)ccc2C(=O)NCC(C)(C)/C(=N/OC)CCCCCOC1=O | 40.7 | inactive | – | – | –
19 | C=C1Cc2cc(C(F)(F)F)ccc2C(=O)NCC(C)(C)/C(=N/OC)CCC(C(=O)O)OC1=O (configuration not stated) | > 100 | inactive | – | – | –
20 | CO/N=C1\CCCCOC(=O)/C(=C/c2ccc(N3CCOCC3)cc2)Cc2cc(C(F)(F)F)ccc2C(=O)NCC1(C)C | > 100 | inactive | – | – | –
21 | C=C1Cc2cc(C(F)(F)F)ccc2C(=O)NCC(C)(C)/C(=N/OC)CCC(c2ccc(F)cc2)OC1=O (configuration not stated) | 27.3 | inactive | – | – | –
22 | C=C1Cc2cc(C(F)(F)F)ccc2C(=O)NCC(C)(C)C(=O)CCCCOC1=O | > 100 | inactive | – | – | –
23 | C=C(Cc1cc(C(F)(F)F)ccc1C(=O)NCC(C)(C)/C(CCCO)=N/OC)C(=O)O | > 100 | inactive | – | – | –
24 | C=C1Cc2cc(C(F)(F)F)ccc2C(=O)NCC(C)(C)/C(=N/OCC23C[C@H]4C[C@@H](C2)C[C@@H](C3)C4)CCC(C)OC1=O (some centres not stated) | 47 | inactive | – | – | –
25 | CCC(CC)Oc1ccc(/C=C2\Cc3cc(C(F)(F)F)ccc3C(=O)NCC(C)(C)/C(=N/OC)CCCCOC2=O)cc1 | > 100 | inactive | – | – | –
